Assays:
[1] = system: IL-2 stimulated pSTAT5 in CD4+ T cells; experiment: Inhibition of IL-2 stimulated pSTAT5 in CD4+ T cells isolated from murine splenocytes; type: cell-based; settings: Mus musculus, AlphaLisa, read-out: pIC50, inhibition of IL-2 stimulated pSTAT5 (converted)
Description: The potency of test compounds for inhibition of interleukin-2 (IL-2) stimulated STAT5 phosphorylation was measured in the CD4+ T cells isolated from murine splenocytes using AlphaLisa. Because IL-2 signals through JAK3, this assay provides a measure of JAK3 cellular potency in mouse.
Phosphorylated STAT5 was measured via the AlphaLISA SureFire Ultra pSTAT5 (Tyr694/699) kit (PerkinElmer).
CD4+ T cells were isolated from murine splenocytes via negative selection on a magnetic column (Miltnyi Biotec) and re-suspended in assay media (phenol red-free DMEM (Life Technologies) supplemented with 10% FBS (ATCC)). Cells were seeded at 50,000 cells/well in assay media (2 μL/well). Compounds were serially diluted in DMSO and diluted to 2× final concentration in assay media. Compound was added (4 μl/well) and the cells incubated at 37° C., 5% CO2 for 1 hour, followed by the addition of IL-2 (R&D Systems; final concentration 7 ng/ml) in pre-warmed assay media (2 μL) for 30 minutes. After cytokine stimulation, cells were lysed with 2 μl of 5× AlphaLisa Lysis Buffer (PerkinElmer). The lysate was shaken at 900 rpm for 10 minutes at room temperature (RT). Phosphorylated STAT5 was measured via the pSTAT5 AlphaLisa kit (PerkinElmer). Freshly prepared acceptor bead mixture was dispensed onto lysate (5 ul) under green filtered <100 lux light. Plates were shaken at 900 rpm for 2 mins, briefly spun down, and incubated for 2 hrs at RT in the dark. Donor beads were dispensed (5 μl) under green filtered <100 lux light. Plates were shaken at 900 rpm for 2 mins, briefly spun down, and incubated overnight at RT in the dark. Luminescence was measured with excitation at 689 nm and emission at 570 nm using an EnVision plate reader (PerkinElmer) under green filtered <100 lux light.
To determine the inhibitory potency of test compounds in response to IL-2, the average emission intensity of beads bound to pSTAT5 was measured in primary CD4+ T cells isolated from murine splenocytes. IC50 values were determined from analysis of the inhibition curves of signal intensity vs compound concentration. Data are expressed as pIC50 (negative decadic logarithm IC50) values (mean±standard deviation).

[2] = system: oxazolone-induced colitis; experiment: Mouse model of oxazolone-induced colitis; type: in vivo; settings: 3 mg/kg (PO, BID)
Outline: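 BALB/c mice skin-sensitized with 4% oxazolone, then challenged intrarectally seven days later with 50 μL 0.8% oxazolone in 1:1 ethanol:water. Oral dosing (QD, BID or TID) or vehicle started one day before challenge. Blinded scoring two days post-challenge: stool consistency plus gross bleeding (0/2/4 each), summed as combined stool score.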

[3] = Colon and plasma mouse pharmacokinetics; type: in vivo; settings: male Balb/c mice, 10 mg/kg PO, 0.5, 2 and 6 hours
Description: 6 male Balb/c mice were administered 10 mg/kg of compound in 1% HPMC+0.1% Tween-80 by PO administration. At 0.5, 2 and 6 hours after dose administration, animals were anesthetized, and terminal blood samples were collected by cardiac puncture, followed by collection of colon contents and colon tissue.
Blood samples were collected into K2EDTA and stored on wet ice until processed to plasma by centrifugation (12000 rpm at 4° C.). Plasma samples were transferred to cluster tubes and placed on dry ice prior to freezer storage. The colon contents from each animal were collected at each terminal blood collection time point. The colon tissues were flushed with saline and patted dry. The colon and colon content tissues were homogenized using sterile water containing 0.1% formic acid 9:1 (water:tissue, v/w). The homogenized tissues and colon contents were transferred to cluster tubes and placed on dry ice prior to freezer storage. All samples were analyzed using LC/MS/MS against analytical standards.
The composite pharmacokinetic parameters of the compounds were determined by non-compartmental analysis using Phoenix WinNonlin Version 6 (Certara, St. Louis, Mo.) and using mean values from 2 animals/time point. For plasma concentrations below the quantification limit (BQL), the lowest concentration measurable or the BLOQ (below limit of quantification) was used.
A colon to plasma ratio was determined as the ratio of the colon AUC to the plasma AUC.

[4] = system: splenic NK cells; experiment: Immunosuppression effects in mouse splenic natural killer (NK) cells; settings: positive control, 30 mg/kg PO, BID
Description: Select compounds were assessed in the mouse splenic cell model following the same treatment paradigm used in the oxazolone-induced colitis model (assay 8).
Adult male Balb/C mice from Harlan were used for the study. The test compound and a Jak3 covalent inhibitor standard 2-propen-1-one, 1-[(2S,5R)-2-methyl-5-(7H-pyrrolo[2,3-d]pyrimidin-4-ylamino)-1-piperidinyl] (30 mg/kg, BID) as a positive control, were dosed orally for three days to naïve mice. Spleens were harvested up to 4 hours post last dose and crushed immediately for cell subtype staining. Prior to fixation, fluorophore-labelled antibodies for CD19 (FITC; B cells), CD3e (PE; pan T cells) and CD49e (APC; NK cells) were incubated with splenocyte samples from each animal to allow for simultaneous, multiple subtype % analysis on the flow cytometer. The number of total spleen cells for each animal was measured by Scepter™ 2.0 Handheld Automated Cell Counter.
The absolute number of lymphocyte subtype population (e.g., splenic B, T and NK cells) was calculated from the percentage of each subtype times the total spleen cells for each animal. A one-way ANOVA, with Fisher's LSD post hoc test, was used to compare the splenic lymphocytes number of the vehicle and test compound groups. The a level was set at p<0.05. Data were presented as the mean±SEM for each group.

[5] = system: IL-2 induced pSTAT5 in thymus; experiment: Systemic target engagement: murine model of IL-2 induced pSTAT5 induction in thymus; type: in vivo, mouse; settings: PO, 10, 30 and 50 mg/kg
Description: IL-2 is an important cytokine underlying the pathophysiology of gastro-intestinal diseases such as […] bowel disease (IBD; Guan and Zhang. Mediators Inflamm, 2017; 4810258). IL-2 binds to cell surface receptors activating members of the Janus family of kinases (JAK), specifically JAK3, which then phosphorylates STAT5 and subsequently activates further transcription pathways. In this model, a dose of IL-2 was delivered systemically to mice to induce the phosphorylation of STAT5 (pSTAT5) which was then measured as the endpoint.
Adult male Balb/c mice from Harlan were used in the assay. Animals were administered test compound via oral gavage (PO, 10 or 30 mg/kg for single dose studies; 10-60 mg/kg for dose response studies) on the afternoon of the day prior to study and then in the morning on the day of study. Two hours after the second PO dose administration, mice were injected intraperitoneally (i.p.) with 100 μl of an appropriate IL-2 dose (for a total of 1-5 μg/mouse depending upon IL-2 batch; R&D Systems). 90-120 minutes after IL-2 insult, thymus samples were harvested.

| SMILES | IC50 [1] | combined stool score endpoint as compared with vehicle treated animals [2] | Kp ([3]; mouse, colon tissue / plasma, read-out: colon to plasma ratio (colon AUC to plasma AUC)) | Splenic NK cell counts [4] | inhibition of pSTAT5 induction in the thymus [5] | colon to plasma ratio (colon AUC to plasma AUC) [3] |
| --- | --- | --- | --- | --- | --- | --- |
| CN(C)C/C=C/C(=O)N1CC(C(C)(C)Oc2cc(-c3ccc(O)c(F)c3)cc3[nH]ncc23)C1 [Compound 19, (E)-1-(3-(2-((6-(3-fluoro-4-hydroxyphenyl)-1H-indazol-4-yl)oxy)propan-2-yl)azetidin-1-yl)-4-(dimethylamino)but-2-en-1-one] | < 1000 nM | statistically significant decrease | > 200 |  |  |  |
| C=CC(=O)N1C[C@H](Nc2ncnc3[nH]ccc23)CC[C@@H]1C [PF-06651600, 2-propen-1-one, 1-[(2S,5R)-2-methyl-5-(7H-pyrrolo[2,3-d]pyrimidin-4-ylamino)-1-piperidinyl], reference compound] |  |  |  | significantly decreased | significant inhibition | 2.8 |

— patent US10392368B2, “Pyrazolo and triazolo bicyclic compounds as JAK kinase inhibitors” (THERAVANCE BIOPHARMA R&D IP, LLC, priority 2017, dated 2019)
